Reference: publication PMC10932281, “A Combination of β-Aescin and Newly Synthesized Alkylamidobetaines as Modern Components Eradicating the Biofilms of Multidrug-Resistant Clinical Strains of Candida glabrata” (International Journal of Molecular Sciences, 2024)
Values after ≈ are worked out from the molar mass of the structure shown. Like-named read-outs stand apart in the source and are kept apart here.

Tests used:
[1] = tested on: C. glabrata 2586 clinical strain; assay: MIC90/MFC, EUCAST broth microdilution; assay type: cell-based, Candida glabrata
C. glabrata 2586 biofilm = assay: Biofilm eradication on polystyrene, fluorescence microscopy (Syto9/PI); assay type: cell-based, Candida glabrata; conditions: Nakaseomyces glabratus, 2586BIOFILM, 72 h, read-out: Biofilm Viability [%] 2586 Live; for viability at 1 µM: AAB alone 1 μM; for viability at 2 µM: AAB alone 2 μM; for viability at 3 µM: AAB alone 3 μM
Method: (§1) C. glabrata biofilm eradication on polystyrene surfaces was assessed according to the following procedure: 1 mL of C. glabrata culture, 10^6 CFU/mL in RMPI 1640 MOPS-buffered medium, was pipetted into the wells of a 48-well adherent plate. Cultures were incubated at 37 °C for 72 h with shaking (400 RPM). […] Non-treated cells were used as the control. This experiment was carried out in triplicate. The analysis of the biofilm eradication of C. glabrata strains on polystyrene surfaces was performed using fluorescence microscopy (FM). For further information, see Section 4.12. below.
(§2) The 72 h biofilm of C. glabrata strains on polystyrene surfaces was stained on 48-well adherent plates with 1 µL of propidium iodide (Ex λ = 543 nm/Em λ = 617 nm) and 1 µL of SYTO9 (Ex λ = 488 nm/Em λ = 503 nm) for 30 min using a LIVE/DEAD BacLight Bacterial Viability Kit (Thermo Fisher Scientific, Waltham, MA USA). Imaging was performed using a fluorescence microscope (FM) BX51 (Olympus, Tokyo, Japan) equipped with an Orca Flash 40 camera (Hamamatsu, Hamamatsu City, Japan) and 10× objective Plan APO. Scale bar = 100 µm. Detailed computer qualitative and quantitative analyses of the obtained pictures were performed by estimating the coverage area on the polystyrene plate (the percentage of the area occupied by the fungal biofilm). The cell viability analysis was performed by calculating the fluorescence intensity of the dyes (Syto9/PI) used. The acquired images were processed and analyzed using Fiji/ImageJ software ver. 1.53c (NIH, Bethesda, MD, USA). First, maximum intensity projections (MIPs) were obtained from stacks of images. The areas of the binary images were transferred into the original live and dead channel MIP images. The mean fluorescence intensities of all detected objects per field of view were calculated using ImageJ’s Analyze Threshold function (Software: ImageJ version 1.53 from Softonic).

[2] = tested on: C. glabrata ATCC 90030 biofilm; assay: as above; assay type: cell-based, Candida glabrata; conditions: Nakaseomyces glabratus, ATCC90030, 72 h, read-out: Biofilm Viability [%] 90030 Live; for viability at 1 µM: AAB alone 1 μM; for viability at 2 µM: AAB alone 2 μM; for viability at 3 µM: AAB alone 3 μM
Method: as §1, §2

C. glabrata 2853 biofilm = assay: as above; assay type: cell-based, Candida glabrata; conditions: Nakaseomyces glabratus, 2853BIOFILM, 72 h, read-out: Biofilm Viability [%] 2853 Live; for viability at 1 µM: AAB alone 1 μM; for viability at 2 µM: AAB alone 2 μM; for viability at 3 µM: AAB alone 3 μM
Method: as §1, §2

[3] = tested on: Balb/3T3 mouse embryonic fibroblasts; assay: Cell proliferation assay (MTT test); assay type: cell-based; conditions: 24 h
Method: Balb/3T3 (ATCC CCL-163) mouse embryonic fibroblasts were cultured in DMEM medium supplemented with 10% fetal bovine serum, 1 mM L-glutamine, and a 1% penicillin/streptomycin solution and were used for our cytotoxicity studies. The cells were cultured at 37 °C and 5% CO2 until the cell density of 10^6 mL^−1 was obtained. Such cells were then seeded in 24-well tissue microplates (2 × 10^4 cells per well) and allowed to adhere overnight under the abovementioned conditions. Cytotoxicity tests were carried out on the cells prepared in this way.
The newly synthesized AABs (C9, C11, C13, and C15) were selected based on previous studies. They were analyzed at the concentrations of 0.25, 0.5, 1, 2, and 3 µM. […] The BALB-3T3 cells were treated with the prepared mixtures, dissolved in a complete cell culture medium, and then incubated for 24 h under the abovementioned conditions. Three independent replicates were performed for each combination of compounds.
The cytotoxic effect of the tested compounds in combination with β-AE was evaluated by measuring mitochondrial dehydrogenase activity using the MTT assay. After a 24 h incubation period, the medium supplemented with the 1mM MTT solution was added to each well. The cultures were continued for another 4 h under the conditions enriched with 5% CO2. After this time, the supernatant was collected, and MTT formazan was extracted from the cells using DMSO. The reaction was then stopped with Sörensen buffer (0.1 mol/L glycine; 0.1 mol/L NaCl; and pH 10.5). The percentage of cytotoxicity was calculated by comparing the absorbance values (λ = 560 nm) of the test sample to the control sample, which was untreated fibroblast cells. In the test performed, the negative control (C−) (sample not treated; PBS added) and positive control (C+) were fibroblast cells treated with 1% SDS [60].

C. glabrata ATCC 90030 [4] = assay: MIC90/MFC, EUCAST broth microdilution; assay type: cell-based, Candida glabrata; conditions: ATCC 90030
Krafft temperature (TK) = assay type: physicochemical
Method: CHNS elemental analysis was carried out by a Vario EL cube (Elementar, Germany) calibrated on acetanilide. Electrospray ionization mass spectroscopy (ESI-MS) (micrOTOF-Q instrument; Bruker Daltonics, Germany) allowed for the MS spectra to be obtained. The ESI-MS instrument was operated in the positive ion mode and calibrated with the Tunemix^TM mixture (Bruker Daltonics, Germany). The mass accuracy was better than 5 ppm. The obtained mass spectra were analyzed using DataAnalysis 3.4 software (Bruker Daltonics, Germany). ^1H NMR spectra were recorded on a Bruker AMX-500 spectrometer, using CDCl3 as a solvent. ^1H chemical shifts (in ppm) were calibrated to TMS as an internal reference. Melting points were determined using a Boetius melting point apparatus, while Krafft temperatures were determined according to the directions given in [47]. CMC is the minimum concentration above which micelles are formed in aqueous liquid. To obtain the CMC values, we used McGowan’s model. […] Molecular characteristic volumes (Vx) are found by the addition of the atomic characteristic volumes and the subtraction for the same factory (6.56 × 10^−6 m^3 mol^−1) for every covalent bond.

[5] = tested on: C. glabrata strains (ATCC 90030, 2586, 2853); assay: MIC, statements for all tested strains together; assay type: cell-based, Candida glabrata; conditions: all the tested C. glabrata strains, AAB alone
[6] = tested on: C. glabrata 2853 clinical strain; assay: MIC90/MFC, EUCAST broth microdilution; assay type: cell-based, Candida glabrata
C. glabrata 2586 [7] = assay: Interaction of AABs (3 µM) with antifungal agents, modified checkerboard; assay type: cell-based, Candida glabrata
C. glabrata ATCC 90030 [8] = assay: as above; assay type: cell-based, Candida glabrata
C. glabrata 2586 [9] = assay: FICI checkerboard, β-aescin with antifungal drugs; assay type: cell-based, Candida glabrata; conditions: combination with β-aescin
C. glabrata 2853 [10] = assay: FICI checkerboard, β-aescin with antifungal drugs; assay type: cell-based, Candida glabrata
[11] = tested on: biofilms of C. glabrata DSM 1226 and two clinical isolates; set-up: method as in PMID 37508306; conditions: combination with β-AE; biofilms of three strains; ref [12]; cited from earlier work
C. glabrata 2853 [12] = assay: Interaction of AABs (3 µM) with antifungal agents, modified checkerboard; assay type: cell-based, Candida glabrata; conditions: for Multiplicity factor (MF) with C9: C9 3 µM
C. glabrata ATCC 90030 [13] = assay: FICI checkerboard, β-aescin with antifungal drugs; assay type: cell-based, Candida glabrata
[14] = Nakaseomyces glabratus, ATCC90030, read-out: MIC converted to
[15] = Nakaseomyces glabratus, read-out: MFC
[16] = Nakaseomyces glabratus, read-out: MIC90
[17] = C11 at constant 3 µM, dilutions in µg/mL
[18] = C13 at constant 3 µM, dilutions in µg/mL
[19] = C15 at constant 3 µM, dilutions in µg/mL
[20] = C9 at constant 3 µM, dilutions in µg/mL

CCCCCCCCCCCC(=O)N(C)CCC[N+](C)(C)CC(=O)[O-] [C11]
MIC90 ([1]; AAB alone): >3 µM/mL | viability at 1 µM (C. glabrata 2586 biofilm): 4.54% | viability at 2 µM (C. glabrata 2586 biofilm): 4.45% | viability at 3 µM (C. glabrata 2586 biofilm): 3.49% | viability at 1 µM [2]: 32.6% | viability at 2 µM [2]: 3.96% | viability at 3 µM [2]: 2.14% | viability at 1 µM (C. glabrata 2853 biofilm): 37.2% | viability at 2 µM (C. glabrata 2853 biofilm): 3.06% | viability at 3 µM (C. glabrata 2853 biofilm): 7.34% | Cytotoxicity level ([3]; 1 µm/mL): 85% | MIC90 (C. glabrata ATCC 90030 [4]; AAB alone): >3 µM/mL | TK (Krafft temperature) (Krafft temperature (TK)): ~5 °C | MIC [5, 14]: 1070 µg/mL (≈ 3 mM) | MIC [5]: 3 µM/mL | MIC90 ([6]; AAB alone): >3 µM/mL

CCCCCCCCCCCCCC(=O)N(C)CCC[N+](C)(C)CC(=O)[O-] [C13]
MIC90 ([1]; AAB alone): >3 µM/mL | viability at 1 µM (C. glabrata 2586 biofilm): 4.56% | viability at 2 µM (C. glabrata 2586 biofilm): 4.57% | viability at 3 µM (C. glabrata 2586 biofilm): 12.9% | viability at 1 µM [2]: 1.96% | viability at 2 µM [2]: 6.55% | viability at 3 µM [2]: 2.26% | viability at 1 µM (C. glabrata 2853 biofilm): 11.6% | viability at 2 µM (C. glabrata 2853 biofilm): 4.98% | viability at 3 µM (C. glabrata 2853 biofilm): 14.2% | Cytotoxicity level ([3]; 2 µM/mL): 85% | MIC90 (C. glabrata ATCC 90030 [4]; AAB alone): >3 µM/mL | TK (Krafft temperature) (Krafft temperature (TK)): 20.5 °C | MIC [5, 14]: 1150 µg/mL (≈ 3 mM) | MIC [5]: 3 µM/mL | MIC90 ([6]; AAB alone): >3 µM/mL

CCCCCCCCCCCCCCCC(=O)N(C)CCC[N+](C)(C)CC(=O)[O-] [C15]
MIC90 ([1]; AAB alone): >3 µM/mL | viability at 1 µM (C. glabrata 2586 biofilm): 6.07% | viability at 2 µM (C. glabrata 2586 biofilm): 2.33% | viability at 3 µM (C. glabrata 2586 biofilm): 6.23% | viability at 1 µM [2]: 41.9% | viability at 2 µM [2]: 28.8% | viability at 3 µM [2]: 41.4% | viability at 1 µM (C. glabrata 2853 biofilm): 63% | viability at 2 µM (C. glabrata 2853 biofilm): 17% | viability at 3 µM (C. glabrata 2853 biofilm): 6.64% | Decrease of viability ([3]; 0.25 µm/mL): 15% | Decrease of viability ([3]; 0.5 µm/mL): 28% | MIC90 (C. glabrata ATCC 90030 [4]; AAB alone): >3 µM/mL | TK (Krafft temperature) (Krafft temperature (TK)): 36.4 °C | MIC [5, 14]: 1240 µg/mL (≈ 3 mM) | MIC [5]: 3 µM/mL | MIC90 ([6]; AAB alone): >3 µM/mL

OC(Cn1cncn1)(Cn1cncn1)c1ccc(F)cc1F [Fluconazole]
MFC [1, 15]: 2050 µg/mL (≈ 6.69 mM) | MIC90 [1, 16]: 2050 µg/mL (≈ 6.69 mM) | Multiplicity factor (MF) with C9 (C. glabrata 2586 [7]; C9 3 µM): 8 | Multiplicity factor (MF) with C11 (C. glabrata 2586 [7]; C11 3 µM): 64 | MIC90 of antimycotic combined with C11 (C. glabrata 2586 [7]; [17]): 32 | Multiplicity factor (MF) with C13 (C. glabrata 2586 [7]; C13 3 µM): 64 | MIC90 of antimycotic combined with C13 (C. glabrata 2586 [7]; [18]): 32 | Multiplicity factor (MF) with C15 (C. glabrata 2586 [7]; C15 3 µM): 64 | MIC90 of antimycotic combined with C15 (C. glabrata 2586 [7]; [19]): 32 | Multiplicity factor (MF) with C9 (C. glabrata ATCC 90030 [8]; C9 3 µM, |MF| = MIC90 alone/MIC90 with AAB): 16 | MIC90 of antimycotic combined with C9 (C. glabrata ATCC 90030 [8]; [20]): 128 | Multiplicity factor (MF) with C11 (C. glabrata ATCC 90030 [8]; C11 3 µM): 64 | MIC90 of antimycotic combined with C11 (C. glabrata ATCC 90030 [8]; [17]): 32 | Multiplicity factor (MF) with C13 (C. glabrata ATCC 90030 [8]; C13 3 µM): 64 | MIC90 of antimycotic combined with C13 (C. glabrata ATCC 90030 [8]; [18]): 32 | Multiplicity factor (MF) with C15 (C. glabrata ATCC 90030 [8]; C15 3 µM): 64 | MIC90 of antimycotic combined with C15 (C. glabrata ATCC 90030 [8]; [19]): 32 | MFC (C. glabrata ATCC 90030 [4]; Nakaseomyces glabratus, ATCC90030, read-out: MFC): 2050 µg/mL (≈ 6.69 mM) | MIC90 (C. glabrata ATCC 90030 [4]; Nakaseomyces glabratus, ATCC90030, read-out: MIC90): 2050 µg/mL (≈ 6.69 mM) | FICI (C. glabrata 2586 [9]): 1.25 | Type of interaction with β-AE (by FICI) (C. glabrata 2853 [10]): additive | FICI (C. glabrata 2853 [10]; combination with β-aescin): 0.75 | FICI [11]: ≤ 0.5 | Multiplicity factor (MF) with C9 (C. glabrata 2853 [12]): 1 | Multiplicity factor (MF) with C9 (C. glabrata 2853 [12]; listed as fluconazole): did not interact | MIC90 of antimycotic combined with C9 (C. glabrata 2853 [12]; [20]): 32 | Multiplicity factor (MF) with C11 (C. glabrata 2853 [12]; C11 3 µM): 2 | MIC90 of antimycotic combined with C11 (C. glabrata 2853 [12]; [17]): 16 | Multiplicity factor (MF) with C13 (C. glabrata 2853 [12]; C13 3 µM): 2 | MIC90 of antimycotic combined with C13 (C. glabrata 2853 [12]; [18]): 16 | Multiplicity factor (MF) with C15 (C. glabrata 2853 [12]; C15 3 µM): 16 | MIC90 of antimycotic combined with C15 (C. glabrata 2853 [12]; [19]): 2 | MFC [6, 15]: 2050 µg/mL (≈ 6.69 mM) | MIC90 [6, 16]: 32 µg/mL (≈ 0.104 mM) | Type of interaction with β-AE (by FICI) (C. glabrata ATCC 90030 [13]): synergistic | FICI (C. glabrata ATCC 90030 [13]; combination with β-aescin): 0.25
